Source: PubChem BioAssay (NCI)
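1) Cells in 96-well plates. 2) Compound, 48 h, 5 concentrations. 3) Linear interpolation between surrounding doses. 4) Unreached endpoint = highest concentration. GI50 = concentration required for 50% inhibition of growth. TGI is the concentration that stops growth completely.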

What follows are molecules tested on MDA-MB-468 breast (assay: inhibition of tumour cell growth, NCI panel, 48 h).
`Nc1c(C(=O)Nc2ccncc2)sc2nc3c(cc12)CCCCCCCC3` was tested, and the GI50 was 0.966 µM and the TGI was 1.76 µM.
`O=C(N[C@@H](c1ccc(Cl)c(Cl)c1)C1CNC1)c1ccc2cnccc2c1` gave a GI50 of 0.0617 µM and a TGI of 0.638 µM.
`COc1cc2c(c(OC)c1OC)-c1ccc(SC)c(=O)cc1C(NC=O)CC2` (centres undefined) showed a GI50 of under 0.01 µM and a TGI of over 100 µM.
`COc1cc(-c2cc(-c3cc4c([nH]c5ccccc54)c(-c4cc(OC)c(OC)c(OC)c4)n3)cc(-c3ccccc3)n2)cc(OC)c1OC` gave a GI50 of 1.73 µM and a TGI of 4.61 µM.
In the case of `CCCN1C(=O)N(CCC)C2C1NC(=S)N2/N=C/C=C/c1ccccc1OC` (centres undefined), the GI50 is reported as 0.372 µM and the TGI is reported as 17 µM.
Molecule `COc1ccc(C(=O)/C=C/c2cc(-c3cc(OC)c(OC)c(OC)c3)n[nH]2)cc1OC` has a GI50 of 0.759 µM and a TGI of 2.18 µM.
With `COc1c(OC[C@H](O)CN2CCOCC2)ccc2c3n(c(=NC(=O)c4cccnc4C)nc12)CCN3` the GI50 was 0.143 µM and the TGI was 1.95 µM.
Work on `COc1cccc2c1C(=O)c1c(O)c3c(c(O)c1C2=O)C[C@](O)(C(=O)CO)C[C@H]3O[C@@H]1C[C@@H](NC(=O)CCCCCN(C)C2(c3ccc(F)cc3)CC3CCC2C3)[C@H](O)[C@@H](C)O1` (some centres undefined) yielded a GI50 of 5.87 µM and a TGI of 13.5 µM.
`CN1C(=O)N(C)C2C1NN=c1s/c(=C\c3ccc(Cl)cc3Cl)c(=O)n12` (centres undefined) was tested, and the GI50 was 0.183 µM and the TGI was 33.4 µM.
`CS(=O)(=O)CCNCc1nc(-c2ccc3ncnc(Nc4ccc(OCc5cccc(C(F)(F)F)c5)cc4)c3c2)cs1` gave a GI50 of 1.55 µM and a TGI of over 20.9 µM.
`Cc1nn(-c2ccc(Cl)cc2)c2nc3c(nc12)C(=O)c1ccccc1-3` showed a GI50 of 58.5 µM and a TGI of over 100 µM.
Work on `CCOC(=O)C(Cc1ccc(CCCC(=O)NCCC(=O)Nc2ccc3nc(C)sc3c2)cc1)C(=O)OCC` yielded a GI50 of 17.6 µM and a TGI of 58.1 µM.
Molecule `O=C(CC1(O)C(=O)N(Cc2ccccc2)c2ccc(F)cc21)c1ccc(C(=O)NCC2CCC3(CC2)OOC2(CCCCC2)OO3)cc1` (centres undefined) has a GI50 of 1.35 µM and a TGI of 3.39 µM.
`[Cl][Hg][c]1cc[c]([Hg][Cl])o1` gave a GI50 of 1.58 µM and a TGI of 3.32 µM.
For `CC(=O)OC12C=CC(=O)N1c1ccccc1C(=O)O2` (centres undefined), the GI50 was over 100 µM and the TGI was over 100 µM.
In the case of `CC(C)Oc1ccc2cc(-c3nn(CC4CCNCC4)c4ncnc(N)c34)ccc2c1`, the GI50 is reported as 6.9 µM and the TGI is reported as 21 µM.
`COc1cc(Cn2c(-c3ccccc3)c(Cl)c3c2-c2oncc2CC3)cc(OC)c1` showed a GI50 of 2.49 µM and a TGI of 7.69 µM.
For `C=C(C)[C@@H]1CC[C@]2(C)[C@H](CC=C3[C@@H]4CC(C)(C)CC[C@]4(C(N)=O)CC[C@]32C)[C@@]1(C)CCC#N`, the GI50 was 2.41 µM and the TGI was 8.42 µM.
In the case of `COc1ccc2[nH]cc(C3(c4c[nH]c5ccc(OC)cc45)C(=O)Nc4ccc(F)cc43)c2c1`, the GI50 is reported as 2.07 µM and the TGI is reported as 5.67 µM.
For `Cn1cc(C2=C(c3cn(CCCCO)c4ccccc34)C(=O)NC2=O)c2ccccc21`, the GI50 was 12 µM and the TGI was over 25 µM.
For `CC(=O)O[C@@H]1C[C@H]2O[C@@H]3C=C(C)CC[C@]3(C)[C@]1(C)[C@]21CO1`, the GI50 was 4.92 µM and the TGI was 18.2 µM.
`C[C@@H]1CC[C@@H]2[C@@H]1[C@H](OC(=O)/C=C/c1ccccc1)[C@]1(C3CCCCC3)C[C@@H](OC(=O)CO)[C@@]2(C)O1` gave a GI50 of 3.33 µM and a TGI of 11.1 µM.
Work on `COc1cc(F)ccc1-c1ncnc(Nc2cccc(CS(C)(=N)=O)c2)n1` (centres undefined) yielded a GI50 of 0.895 µM and a TGI of 5.56 µM.
With `C=CCCCCOc1ccccc1-c1cnc(OCCCCC=C)n1C` the GI50 was 1.93 µM and the TGI was 7.86 µM.
With `Cc1ncc(C(=O)Nc2ccc(CN3CCN(C)CC3)c(C(F)(F)F)c2)cc1C#Cc1cnc(N)c2ccncc12` the GI50 was 1.87 µM and the TGI was 4.4 µM.
`O=C(Nc1ccncc1)C(=O)c1cn(S(=O)(=O)c2ccc(F)cc2)c2ccccc12` showed a GI50 of 1.67 µM and a TGI of over 100 µM.
`Cc1ccc(NC(=O)CC2CC2)cc1-c1ccc(C(=O)NCC2CC2)cc1` showed a GI50 of over 15 µM and a TGI of over 25 µM.
Molecule `CC[C@H]1[C@@H]2C=C[C@@H]3[C@H]4C/C=C\C(=O)NCCC[C@@H]5NC(=O)/C(=C(O)/C=C/[C@@H]4C[C@@H]3[C@H]2C[C@H]1C)C5=O` has a GI50 of 2.02 µM and a TGI of 5.16 µM.
In the case of `Cn1cc(-c2csc(-c3c[nH]c4ccc(F)cc34)n2)c2cnccc21`, the GI50 is reported as 1.45 µM and the TGI is reported as 3.19 µM.
With `O=C(c1ccccc1)c1cc2ccccc2o1` the GI50 was 48.2 µM and the TGI was over 100 µM.
`CCOC(=O)Nc1ccc(-c2nc(-c3cccc(OCCN4CCOCC4)c3)c(-c3ccnc(Br)c3)[nH]2)cc1` was tested, and the GI50 was 1.68 µM and the TGI was 3.66 µM.
With `C#C[C@]1(O)CCC2C3CCc4cc(O)ccc4C3CC[C@@]21C` (some centres undefined) the GI50 was 1.84 µM and the TGI was 6.2 µM.
`CCSc1ncnc2c1ncn2C1OC(CO)C(O)C1O` (centres undefined) showed a GI50 of 0.583 µM and a TGI of 17.6 µM.
For `COc1ccc(-c2nn(-c3ccc(NC(=O)c4ccc(Cl)c(Cl)c4)cc3)cc2-c2ccncc2)cc1Cl`, the GI50 was 3.15 µM and the TGI was over 50 µM.
Work on `CNCC#Cc1c(F)ccc2c1/C(=C/c1[nH]ccc1OC)C(=O)N2` yielded a GI50 of 0.279 µM and a TGI of 0.858 µM.
`Cc1cc2nc3c4cc(Cl)ccc4n(CC(=S)NCCN(C)C)c3nc2cc1C` showed a GI50 of 1.95 µM and a TGI of 3.96 µM.
With `O=C1OCC2=C1C(c1cccc(Br)c1)c1cc3c(cc1N2CCO)CCC3` (centres undefined) the GI50 was 0.0436 µM and the TGI was 1.14 µM.
